Where a name gives a salt, the structure may show the parent alone.

This experiment concerns Indomethacin-induced Gastric Lesions. As to the kind of experiment: Reversal of indomethacin-induced gastric lesions (number of macroscopically visible hemorrhagic lesions in the glandular stomach). The experiment is classed as in vivo, Male, Sprague-Dawley rats. The following applies: Rattus norvegicus, ip, 6 h, 1 hour before 25 mg/kg oral indomethacin, lesions counted six hours after indomethacin, versus saline control group, read-out: Percent Inhibition; for inhibition in vivo at 50 mg/kg: test compound 50 mg/kg intraperitoneal; for inhibition in vivo at 100 mg/kg: test compound 100 mg/kg intraperitoneal. The method, then:
The methodology for determining the degree of inhibition of gastric lesion formation by the compounds of formula 1 is described below and the results, expressed as percent inhibition, are given in Table 1. Reversal of Indomethacin-induced Gastric Lesions Male, Sprague-Dawley rats weighing 200-225 grams were fasted 24 hours prior to the intraperitoneal administration of the test compounds. The standard screening dosed employed was either 100 or 50 mg/kg. One hour later, the rats were orally administered 25 mg/kg of indomethacin. Both indomethacin and the compounds were suspended in 1% Clearjel ("Instant Clearjel®", a food grade pregelatinized starch from National Starch and Chemical Corporation, New York, N.Y.) or .85% NaCl saline for dosing. Six hours after indomethacin administration, the animals were sacrificed, their stomachs removed, opened along the line of greater curvature, and rinsed with distilled water. The number of macroscopically visible hemmorhagic lesions (dark brown discolorations) in the glandular portion of the stomach was enumerated. […] [table]

`COc1ccc(/C=C/c2ccc3c(=O)n(CCN4CCOCC4)ncc3c2)cc1` [Example 4, Trans-6-[2-(4-methoxyphenyl)ethenyl]-2-(2-morpholinoethyl)-phthalazin-1(2H)-one hydrobromide]: the inhibition in vivo at 50 mg/kg was 7%.

As to `COc1ccc(/C=C/c2ccc3c(=O)n(CCN(C(C)C)C(C)C)ncc3c2)cc1` [Example 1, Trans-6-[2-(4-methoxyphenyl)ethenyl]-2-[2-(diisopropylamino)-ethyl]phthalazin-1(2H)-one hydrobromide], the inhibition in vivo at 100 mg/kg was 92%.

As to `COc1ccc(/C=C/c2ccc3c(=O)n(C4CCN(C)CC4)ncc3c2)cc1` [Example 6, Trans-6-[2-(4-methoxyphenyl)ethenyl]-2-(1-methyl-4-piperidinyl)phthalazin-1(2H)-one], the inhibition in vivo at 100 mg/kg amounted to 63%.

`COc1ccc(/C=C\c2ccc3c(=O)n(CCCN(C)C)ncc3c2)cc1` [Example 10, CIs-6-[2-(4-methoxyphenyl)ethenyl]-2-[3-(dimethylamino)propyl]phthalazin-1(2H)-one cyclohexylsulfamate]: the inhibition in vivo at 50 mg/kg worked out at 61%.

`COc1ccc(/C=C/c2ccc3c(=O)n(CCCCN(C)C)ncc3c2)cc1` [Example 9, Trans-6-[2-(4-methoxyphenyl)ethenyl]-2-[4-(dimethylamino)-butyl]phthalazin-1(2H)-one hydrobromide]: the inhibition in vivo at 50 mg/kg came to 85%.

Take `O=c1[nH]ncc2cc(/C=C/c3ccc(O)cc3)ccc12` [Example 11, Trans-6-[2-(4-Hydroxyphenyl)ethenyl]-phthalazin-1(2H)-one]: the inhibition in vivo at 100 mg/kg came out at 45%.

Take `O=c1c2ccc(/C=C/c3ccccc3)cc2cnn1CCO` [Example 17, Trans-2-(2-hydroxyethyl)-6-(2-phenylethenyl)-1(2H)-phthalazinone]: the inhibition in vivo at 100 mg/kg was 59%.

With `CN(C)CCCn1ncc2cc(/C=C/c3ccccc3)ccc2c1=O` [Example 16, Trans-2-[3-(dimethylamino)propyl]-6-(2-phenylethenyl)-1(2H)-phthalazinone], the inhibition in vivo at 50 mg/kg came out at 80%.

Regarding `CN(C)CCn1ncc2cc(/C=C/c3ccc(O)cc3)ccc2c1=O` [Example 15, Trans-6-[2-(4-hydroxyphenyl)ethenyl]-2-[2-(dimethylamino)-ethyl]-1(2H)-phthalazinone hydrochloride], the inhibition in vivo at 100 mg/kg came out at 7.2%.

As to `CNCCCn1ncc2cc(/C=C/c3ccc(OC)cc3)ccc2c1=O` [Example 7, Trans-6-[2-(4-methoxyphenyl)ethenyl]-2-[3-(methylamino)-propyl]phthalazin-1(2H)-one hydrobromide], the inhibition in vivo at 50 mg/kg stood at 79%.

Take `COc1ccc(/C=C/c2ccc3c(=O)n(CCCN(C)C)ncc3c2)cc1` [Example 13, Trans-6-[2-(4-methoxyphenyl)ethenyl]-2-[3-dimethylamino)-propyl]phthalazin-1(2H)-one hydrobromide]: the inhibition in vivo at 50 mg/kg amounted to 99%.

Consider `COc1ccc(/C=C/c2ccc3c(=O)n(CCN(C)C)ncc3c2)cc1` [Example 3, Trans-6-[2-(4-methoxyphenyl)ethenyl]-2-[2-(dimethylamino)-ethyl]phthalazin-1(2H)-one hydrobromide], for which the inhibition in vivo at 100 mg/kg was 65%.

Regarding `COc1ccc(/C=C/c2ccc3c(=O)n(CCCN)ncc3c2)cc1` [Example 8, Trans-6-[2-(4-methoxyphenyl)ethenyl]-2-(3-aminopropyl)-phthalazin-1(2H)-one hydrobromide], the inhibition in vivo at 50 mg/kg was found to be 96%.

As for `CN(C)CCCn1ncc2cc(/C=C/c3ccc(O)cc3)ccc2c1=O` [Example 14, Trans-6-[2-(4-hydroxyphenyl)ethenyl]-2-[3-(dimethylamino)-propyl]phthalazin-1(2H)-one hydrochloride], the inhibition in vivo at 50 mg/kg was 96.3%.

Regarding `O=c1[nH]ncc2cc(/C=C/c3ccccc3)ccc12` [Example 12, Trans-6-[2-phenylethenyl]phthalazin-1(2H)-one], the inhibition in vivo at 100 mg/kg stood at 43%.

`COc1ccc(/C=C/c2ccc3c(=O)n(CCCN4CCNCC4)ncc3c2)cc1` [Example 5, Trans-6-[2-(4-methoxyphenyl)ethenyl]-2-[3-(1-piperazino)-propyl]phthalazin-1(2H)-one]: the inhibition in vivo at 50 mg/kg was 89%.

Regarding `COc1ccc(/C=C/c2ccc3c(=O)n(CCCN4CCCCC4)ncc3c2)cc1` [Example 2, Trans-6-[2-(4-methoxyphenyl)ethenyl]-2-(3-piperidinopropyl)-phthalazin-1(2H)-one hydrobromide], the inhibition in vivo at 50 mg/kg turned out to be 91%.
